Blank lines part the entries; values can stand above or below the compound they belong to.
Assays:
[1] = system: Staph. Russell; assay: standard MIC test of ampicillin with synergist, Staph. Russell; type: cell-based
Excerpt: (§1) The synergist referred to hereinafter is sodium 9-O-carboxamidomethylclavulanate.

[2] = system: E. Coli JT 39; assay: standard MIC test of ampicillin with synergist, E. Coli JT 39; type: cell-based
Excerpt: as §1

[3] = system: Proteus C889; assay: standard MIC test of ampicillin with synergist, Proteus C889; type: cell-based; conditions: 0 μg/ml synergist (ampicillin alone)
Excerpt: as §1

[4] = system: Kleb. E 70; assay: standard MIC test of ampicillin with synergist, Kleb. E 70; type: cell-based
Excerpt: as §1

[5] = toxic effects during testing at therapeutic doses in animals; type: in vivo
[6] = system: Staph. Russell, Kleb. E 70, Proteus C889, E. Coli JT 39; assay: standard MIC tests, synergy statement; type: cell-based; conditions: with ampicillin
Excerpt: as §1

[7] = system: E. coli JT 39 infection; assay: E. coli JT 39 infection in mice, CD50 of amoxycillin with subcutaneous synergist; type: in vivo
[8] = 0 μg/ml synergist (ampicillin alone)
[9] = synergist alone, obtained in separate test

- MIC of Ampicillin [1, 8]: > 32 µg/mL
- MIC of Ampicillin [2, 8]: > 32 µg/mL
- MIC of Ampicillin [3]: > 32 µg/mL
- MIC of Ampicillin [4, 8]: > 32 µg/mL
Compound: CC1(C)S[C@@H]2[C@H](NC(=O)[C@H](N)c3ccccc3)C(=O)N2[C@H]1C(=O)O [Ampicillin, reference compound]

Compound: NC(=O)COC/C=C1\O[C@@H]2CC(=O)N2[C@H]1C(=O)O [Example 2, Sodium 9-O-carboxamidomethylclavulanate]
- overt toxic symptoms ([5]; in vivo): No overt toxic symptoms were observed
- animal deaths due to toxic effects ([5]; therapeutic doses): did not cause animal deaths due to toxic effects
- synergy in standard MIC tests [6]: demonstrated synergy
- MIC [1, 9]: 31 µg/mL
- MIC ([2]; Escherichia coli, synergist alone, obtained in separate test): 31 µg/mL
- effect of the compound alone on infection ([7]; compound of this example alone at 2 mg/kg×2): no effect
- MIC [4, 9]: 31 µg/mL

Compound: CC1(C)S[C@@H]2[C@H](NC(=O)[C@H](N)c3ccc(O)cc3)C(=O)N2[C@H]1C(=O)O [amoxycillin, reference compound]
- CD50 of amoxycillin ([7]; amoxycillin alone): greater than 500 mg/kg×2

Source: patent US4409207A, “Derivatives of clavulanic acid, a process for their preparation and their use” (Beecham Group Limited, priority 1978, dated 1983)
